The text below walks through data of patent publication US20250325710A1, “Advanced In Vivo Platform to Study Human Neural Maturation and Circuit Integration” (priority 2022, published 2025).

In assay [1] the test system is blue light-evoked EPSCs in rat pyramidal cortical neurons. The format is cell-based.
Assay [2] addresses element-binding protein (CBP) (Homo sapiens, UniProt Q92793). Conditions: cited from earlier work.
Assay [3] deals with Wnt-stimulated cellular responses. Conditions: cited from earlier work.
In assay [4] the test system is Wnt processing and secretion. As to conditions: cell-free assay; cited from earlier work.
In assay [5] the test system is PORCN. As to conditions: read-out: EC50, Porcn inhibitor; cited from earlier work.
For a further assay, the system named is Wnt signaling. Conditions: TM3 cells; cited from earlier work.
For assay [6], the system named is AMPA receptor. The experiment in a line: Whole-cell recordings of evoked EPSCs in t-hCS human neurons in acute thalamocortical slices. Format: cell-based. Conditions: evoked by electrical stimulation of rat S1, internal capsule, white matter or t-hCS, or optogenetic activation of thalamic terminals; NBQX 10 μM.
Assay [7] relates to AMPA receptor. Nature of the assay: Whole-cell recordings of blue light-evoked EPSCs in rat pyramidal cortical neurons in acute brain slices (activation of t-hCS axons). Conditions: evoked by blue light activation of t-hCS axons; NBQX 10 μM. Format: cell-based.
The target in another assay is Smo heptahelical domain (Homo sapiens, UniProt Q99835). Conditions: cited from earlier work.
Chain of Smo heptahelical domain (Q99835 28-787): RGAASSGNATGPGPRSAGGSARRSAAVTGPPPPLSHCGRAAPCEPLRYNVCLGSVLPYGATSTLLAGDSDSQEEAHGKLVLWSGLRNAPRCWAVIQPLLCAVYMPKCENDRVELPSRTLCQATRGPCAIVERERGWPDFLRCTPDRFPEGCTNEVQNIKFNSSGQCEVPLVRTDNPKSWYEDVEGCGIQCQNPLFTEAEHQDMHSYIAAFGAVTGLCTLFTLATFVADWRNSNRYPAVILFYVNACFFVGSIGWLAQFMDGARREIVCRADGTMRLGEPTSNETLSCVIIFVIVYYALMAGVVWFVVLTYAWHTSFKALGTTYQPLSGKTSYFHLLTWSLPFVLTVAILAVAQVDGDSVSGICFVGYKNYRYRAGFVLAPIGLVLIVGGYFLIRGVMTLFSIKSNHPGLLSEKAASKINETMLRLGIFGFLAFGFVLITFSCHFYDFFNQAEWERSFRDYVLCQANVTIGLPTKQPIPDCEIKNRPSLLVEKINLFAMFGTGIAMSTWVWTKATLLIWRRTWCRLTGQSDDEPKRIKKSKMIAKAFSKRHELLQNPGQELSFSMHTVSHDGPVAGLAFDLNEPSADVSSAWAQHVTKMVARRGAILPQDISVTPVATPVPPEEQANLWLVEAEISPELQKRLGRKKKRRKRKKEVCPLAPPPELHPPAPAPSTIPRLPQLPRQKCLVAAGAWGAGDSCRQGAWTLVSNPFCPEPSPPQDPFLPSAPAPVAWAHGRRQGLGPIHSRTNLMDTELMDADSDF
In another assay the target is T1, TNKS2 (Homo sapiens, UniProt Q9H2K2).
T1 sequence (Q9H2K2 1-1166): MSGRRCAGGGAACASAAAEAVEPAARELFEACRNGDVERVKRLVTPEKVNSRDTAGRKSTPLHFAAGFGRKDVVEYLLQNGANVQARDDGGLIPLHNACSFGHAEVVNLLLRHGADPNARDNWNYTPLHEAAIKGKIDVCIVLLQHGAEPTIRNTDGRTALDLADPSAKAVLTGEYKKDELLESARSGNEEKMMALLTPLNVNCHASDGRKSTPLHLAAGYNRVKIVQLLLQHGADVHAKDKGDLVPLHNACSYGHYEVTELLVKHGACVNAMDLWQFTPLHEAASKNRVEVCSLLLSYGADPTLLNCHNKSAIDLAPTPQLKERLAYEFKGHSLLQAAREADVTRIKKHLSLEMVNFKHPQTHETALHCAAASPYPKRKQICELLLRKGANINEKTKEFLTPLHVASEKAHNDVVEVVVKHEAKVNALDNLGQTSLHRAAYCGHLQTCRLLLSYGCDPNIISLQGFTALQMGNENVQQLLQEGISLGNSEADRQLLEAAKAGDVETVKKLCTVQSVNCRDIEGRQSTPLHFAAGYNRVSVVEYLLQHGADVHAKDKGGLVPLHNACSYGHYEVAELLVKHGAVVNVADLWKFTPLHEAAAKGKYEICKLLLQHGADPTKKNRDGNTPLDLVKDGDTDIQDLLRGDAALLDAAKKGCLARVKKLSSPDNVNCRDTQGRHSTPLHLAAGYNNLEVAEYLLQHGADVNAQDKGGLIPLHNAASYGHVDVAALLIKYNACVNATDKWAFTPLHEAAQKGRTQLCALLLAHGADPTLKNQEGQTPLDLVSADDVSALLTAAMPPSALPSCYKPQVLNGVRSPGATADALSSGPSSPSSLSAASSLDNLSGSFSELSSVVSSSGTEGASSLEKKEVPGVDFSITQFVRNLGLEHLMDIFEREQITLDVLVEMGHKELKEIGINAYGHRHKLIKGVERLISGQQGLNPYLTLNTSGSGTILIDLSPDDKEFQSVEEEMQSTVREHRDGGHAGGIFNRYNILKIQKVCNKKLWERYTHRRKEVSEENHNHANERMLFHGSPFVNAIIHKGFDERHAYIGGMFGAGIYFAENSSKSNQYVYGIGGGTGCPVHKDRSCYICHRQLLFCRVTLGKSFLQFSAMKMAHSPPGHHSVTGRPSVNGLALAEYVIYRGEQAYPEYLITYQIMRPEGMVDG
Conditions: cited from earlier work.

In assay [8] the test system is PORCN. Conditions: HEK293 cells; read-out: IC50, Wnt3A-mediated activation of a multimerized TCF-binding site driving luciferase; cited from earlier work.

Broadly, the IC50 is the concentration that gives 50% inhibition. What is called EC50 is the concentration at which the effect is half-maximal. Usually Kd stands for the equilibrium constant for the complex coming apart.

Chain of element-binding protein (CBP) (Q92793 whole entry): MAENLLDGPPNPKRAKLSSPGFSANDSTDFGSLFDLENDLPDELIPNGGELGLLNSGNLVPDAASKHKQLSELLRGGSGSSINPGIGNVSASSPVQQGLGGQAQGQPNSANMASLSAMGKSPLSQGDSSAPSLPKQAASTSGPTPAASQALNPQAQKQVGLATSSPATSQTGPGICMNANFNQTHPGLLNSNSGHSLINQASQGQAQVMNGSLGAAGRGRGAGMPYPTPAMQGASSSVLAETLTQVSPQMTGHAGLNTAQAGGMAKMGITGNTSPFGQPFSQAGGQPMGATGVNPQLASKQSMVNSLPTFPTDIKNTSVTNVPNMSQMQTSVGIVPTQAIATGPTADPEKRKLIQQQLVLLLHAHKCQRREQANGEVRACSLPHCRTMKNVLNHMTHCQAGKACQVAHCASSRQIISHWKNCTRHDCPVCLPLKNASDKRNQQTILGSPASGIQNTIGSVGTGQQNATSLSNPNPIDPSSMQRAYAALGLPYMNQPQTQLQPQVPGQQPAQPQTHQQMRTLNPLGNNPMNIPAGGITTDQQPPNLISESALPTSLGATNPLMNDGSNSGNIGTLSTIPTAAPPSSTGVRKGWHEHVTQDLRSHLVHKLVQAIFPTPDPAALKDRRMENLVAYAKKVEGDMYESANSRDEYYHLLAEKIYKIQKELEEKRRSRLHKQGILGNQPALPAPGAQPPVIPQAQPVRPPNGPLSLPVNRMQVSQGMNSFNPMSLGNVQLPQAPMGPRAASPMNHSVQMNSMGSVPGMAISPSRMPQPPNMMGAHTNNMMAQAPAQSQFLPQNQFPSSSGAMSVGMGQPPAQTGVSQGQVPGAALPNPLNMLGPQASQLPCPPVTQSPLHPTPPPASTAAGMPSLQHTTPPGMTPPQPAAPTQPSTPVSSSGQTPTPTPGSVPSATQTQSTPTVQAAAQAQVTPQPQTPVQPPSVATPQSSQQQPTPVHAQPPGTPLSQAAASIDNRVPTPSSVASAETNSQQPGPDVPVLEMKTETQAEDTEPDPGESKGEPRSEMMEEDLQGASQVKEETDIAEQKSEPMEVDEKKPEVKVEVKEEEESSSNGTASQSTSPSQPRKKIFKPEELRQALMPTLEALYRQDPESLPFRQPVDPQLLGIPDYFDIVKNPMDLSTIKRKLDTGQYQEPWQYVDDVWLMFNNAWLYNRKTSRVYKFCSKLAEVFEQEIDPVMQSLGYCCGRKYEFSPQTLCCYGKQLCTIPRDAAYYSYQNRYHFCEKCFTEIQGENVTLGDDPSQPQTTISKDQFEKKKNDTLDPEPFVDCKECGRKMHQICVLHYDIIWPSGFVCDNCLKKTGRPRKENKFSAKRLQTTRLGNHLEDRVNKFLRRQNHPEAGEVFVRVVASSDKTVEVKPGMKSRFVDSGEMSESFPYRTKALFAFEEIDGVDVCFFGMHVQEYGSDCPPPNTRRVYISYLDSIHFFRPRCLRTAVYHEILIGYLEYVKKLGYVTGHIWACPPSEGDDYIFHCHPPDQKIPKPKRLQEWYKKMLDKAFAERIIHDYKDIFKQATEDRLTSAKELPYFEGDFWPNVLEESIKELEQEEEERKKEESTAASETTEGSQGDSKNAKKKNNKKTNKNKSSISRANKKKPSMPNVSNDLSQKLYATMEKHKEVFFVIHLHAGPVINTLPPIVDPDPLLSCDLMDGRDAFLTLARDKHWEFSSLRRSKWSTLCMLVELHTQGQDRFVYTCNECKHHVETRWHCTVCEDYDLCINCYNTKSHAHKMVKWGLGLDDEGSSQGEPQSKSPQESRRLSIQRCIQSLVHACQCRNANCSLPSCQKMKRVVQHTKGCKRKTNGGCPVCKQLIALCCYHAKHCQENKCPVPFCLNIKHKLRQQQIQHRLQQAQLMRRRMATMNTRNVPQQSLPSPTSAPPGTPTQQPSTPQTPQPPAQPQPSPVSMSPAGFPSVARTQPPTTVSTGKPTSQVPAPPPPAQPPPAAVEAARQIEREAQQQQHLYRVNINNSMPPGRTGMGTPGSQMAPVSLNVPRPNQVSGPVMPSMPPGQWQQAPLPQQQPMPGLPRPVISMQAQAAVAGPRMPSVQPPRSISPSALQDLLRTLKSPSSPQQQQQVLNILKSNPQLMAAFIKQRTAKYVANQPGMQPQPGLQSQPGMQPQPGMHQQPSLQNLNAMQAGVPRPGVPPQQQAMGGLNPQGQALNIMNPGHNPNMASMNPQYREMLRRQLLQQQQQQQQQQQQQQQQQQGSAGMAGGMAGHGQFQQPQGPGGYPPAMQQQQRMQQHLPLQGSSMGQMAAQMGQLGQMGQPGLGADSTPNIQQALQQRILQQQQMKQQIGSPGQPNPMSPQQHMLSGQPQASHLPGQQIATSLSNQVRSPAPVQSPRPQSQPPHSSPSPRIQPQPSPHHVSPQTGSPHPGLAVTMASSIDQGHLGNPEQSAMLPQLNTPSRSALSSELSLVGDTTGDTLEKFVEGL

As to `Nc1ccncc1` [4-AP, 4 Amino-Pyridine], the “Effect on blue light-evoked responses in rat cortical neurons” value in [1] is reported as “recovered”.

Regarding `O=C1[C@H](Cc2ccc(O)cc2)N2C(=O)CCN(C(=O)NCc3ccccc3)[C@H]2CN1Cc1cccc2ccccc12` [ICG-001], the 50% inhibitory concentration (IC50) in [2] is 3000 nM.

`Cc1ccc2nc(NC(=O)CSc3nc4c(c(=O)n3-c3ccccc3)SCC4)sc2c1` [IWP-2]: in [3], the “Effect against Wnt-stimulated cellular responses” value was “no effect”. Moreover, the half-maximal inhibitory concentration (IC50) in assay [4] is 27 nM.

In the case of `O=C(CSc1nc2c(c(=O)n1-c1ccccc1)SCC2)Nc1ccc(-c2ccccc2)cn1` [IWP-L6], in the assay with PORCN [5], the concentration giving a half-maximal response (EC50) was 0.5 nM.

For `Cc1cc(-c2ncc(CC(=O)Nc3ccc(-c4cnccn4)cn3)cc2C)ccn1` [LGK-974], in the assay with Wnt signaling, the half-maximal inhibitory concentration (IC50) is 0.4 nM.

For the compound `NS(=O)(=O)c1cccc2c1c([N+](=O)[O-])cc1nc(O)c(O)nc12` [NBQX], the “Effect on short latency EPSCs in human t-hCS neurons” value in the assay with AMPA receptor [6] is “blocked”. The “Effect on short-latency EPSCs in rat pyramidal cortical neurons” value with AMPA receptor [7] is recorded as “blocked”.

Turning to `CNC1CCC(N(Cc2cccc(-c3ccncc3)c2)C(=O)c2sc3ccccc3c2Cl)CC1` (centres unmarked) [SAG], the Kd at Smo heptahelical domain was 59 nM.

Consider `COc1ccc(-n2c(SCCCN3C(=O)c4cccc5cccc(c45)C3=O)nnc2-c2ccncc2)cc1` [WIKI4], for which the IC50 on TNKS2 was 15 nM.

Take `Cc1cc(-c2ccc(CC(=O)Nc3ccc(-c4cccnc4)cc3)cc2)ccn1` [Wnt-C59]: in the assay on PORCN [8], the concentration for half-maximal inhibition (IC50) was 0.074 nM.
